Values of other authors, collected in publication PMC13112601 (International journal of biological macromolecules, 2026).

How the values were obtained:
ERRα = molecular target: T1, ERRα (Homo sapiens, UniProt P11474); conditions: previously reported
T1 construct: Full-length ERRα (A) and ERRγ (B) transfection assay results in HEK293 cells; host or cells: HEK293
T1 sequence (P11474 1-423): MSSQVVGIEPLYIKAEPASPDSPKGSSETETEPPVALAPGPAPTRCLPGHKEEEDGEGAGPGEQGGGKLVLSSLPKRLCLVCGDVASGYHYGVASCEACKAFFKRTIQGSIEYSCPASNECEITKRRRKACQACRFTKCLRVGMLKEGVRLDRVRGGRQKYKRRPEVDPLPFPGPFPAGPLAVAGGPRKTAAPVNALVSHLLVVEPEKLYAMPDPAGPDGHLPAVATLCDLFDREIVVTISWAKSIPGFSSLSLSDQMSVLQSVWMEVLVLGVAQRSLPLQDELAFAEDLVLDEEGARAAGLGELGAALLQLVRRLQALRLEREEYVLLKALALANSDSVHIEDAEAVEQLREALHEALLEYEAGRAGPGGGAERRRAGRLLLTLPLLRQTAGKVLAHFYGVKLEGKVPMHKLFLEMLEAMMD

ERRγ = molecular target: T2, ERRγ (Homo sapiens, UniProt P62508); conditions: previously reported
T2 construct: Full-length ERRα (A) and ERRγ (B) transfection assay results in HEK293 cells; host or cells: HEK293
T2 sequence (P62508 1-458): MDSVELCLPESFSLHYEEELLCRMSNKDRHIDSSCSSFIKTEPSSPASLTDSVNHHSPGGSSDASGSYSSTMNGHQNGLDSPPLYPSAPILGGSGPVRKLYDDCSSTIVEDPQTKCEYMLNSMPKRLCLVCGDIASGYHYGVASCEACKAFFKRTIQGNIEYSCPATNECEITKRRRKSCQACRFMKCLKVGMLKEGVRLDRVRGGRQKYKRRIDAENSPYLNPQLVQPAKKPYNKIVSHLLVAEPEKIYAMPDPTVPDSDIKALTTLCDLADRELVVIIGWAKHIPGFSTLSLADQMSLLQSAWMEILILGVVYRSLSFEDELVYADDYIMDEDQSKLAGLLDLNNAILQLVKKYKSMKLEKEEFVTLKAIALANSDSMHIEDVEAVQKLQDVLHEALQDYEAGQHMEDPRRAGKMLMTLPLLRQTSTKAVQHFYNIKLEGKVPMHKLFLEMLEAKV

EC50 (ERRα): 209 nM
EC50 (ERRγ): 194 nM
SMILES: Cc1ccc(C(=O)N/N=C/c2ccccc2)cc1 [BE5082, (E)-N′-Benzylidene-4-methylbenzohydrazide]
